Read-outs that look alike come from different tables or passages of the source.
Legend:
HDF cells [1] = experiment: Summary of uses and toxic effects deduced from the cell assays (Table 1); format: cell-based, Human; details: for Anti-fibrotic (prevention of scar formation, also from acne) / Cytoprotective (antioxidant, anti-inflammatory and anti-ageing; useful also in the treatment of acne) / Cytotoxic / Irritant / Wound-healing: 24 hours
Summary of the method: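 HDF cells exposed to test substances at a given dosage for 24 h; uses and toxicity inferred from free-radical scavenging, mitochondrial dehydrogenase activity, IL-1β/IL-6 production (basal or induced by 100 µM H2O2), proliferation under standard growth conditions, and senescence-like morphology.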

interleukin 6 (IL-6) = experiment: Inflammatory cytokines in cell supernatant (Mosaic ELISA microarray): IL-6; format: cell-based, Human; details: for IL-6 ng/(ml* No. of cells from photo) ± SD: 24 hours
HDF cells [2] = experiment: Evaluation of cell morphology (Sirius Red stained cells, microscopy); format: cell-based, Human
Method: Their morphology, colour and shape have been evaluated by using the ImageJ software program.
The results of the effects on cell morphology, produced by the treatment with the test compounds for 24 hours at the concentrations specified, in HDF cells stained for collagen with PSR are shown in Figures 4a-d, 5a-d and 6a-f. These Figures allow evaluating cell morphology through light microscopy observation at magnifications of 100x, 200x and 400x for HDF cells cultured under standard growth conditions, in the presence of 100 µM H2O2 and in the presence of 34 ng/ml TGF-β1.

HDF cells [3] = experiment: Evaluation of cell proliferation (counting of Sirius Red stained cells in photographs); details: for No. of cells from photo ± SD: 24 hours
interleukin 1β (IL-1β) = experiment: Inflammatory cytokines in cell supernatant (Mosaic ELISA microarray): IL-1β; format: cell-based, Human; details: for IL-1β ng/(ml* No. of cells from photo) ± SD: 24 hours
[4] = system: collagen produced by HDF cells; experiment: Quantity of collagen produced by the cells (elution of Sirius Red)
[5] = Anti-radical activity (decay of the DPPH radical); format: biochemical; details: for Anti-radical (skin protective): 24 hours
Summary of the method: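 Test substance in ethanol mixed 1:1 with 200 µM DPPH (stock concentrations), in quadruplicate. Absorbance read at 530 nm after 30 min, with vitamin C and ethanol-only controls. IC50 from variable-slope Hill regression of dose-activity curves.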

[6] = system: Human dermal fibroblasts (HDF); experiment: Mitochondrial dehydrogenase activity (WST-1 formazan assay) in HDF cells; details: for mitochondrial dehydrogenase activity (effect in words): 1 µM; for Revitalizing agent: 24 hours; for activity at 1 µM / activity at 10 µM: Homo sapiens, Fibroblast, read-out: % mitochondrial dehydrogenase activity ± SD
Method: Human dermal fibroblasts were used for assay at the 3rd T75 passage.
Mitochondrial dehydrogenase activity was measured in HDF, HEK and HUVEC cells by means of the formazan assay, using the WST-1 kit from Roche Diagnostic in accordance with the supplier's instructions. Briefly: the reagent was added (10 µl per well), the incubation was carried out for a further 2 hours or 4 hours, and, at the end of this time, the absorbance was read for 1 s at a wavelength of 450 nm in a Perkin Elmer Victor 2 Wallac microplate reader.
The activity percentage (% mitochondrial dehydrogenase activity) is defined as: % mitochondrial dehydrogenase activity = ((absorbance of treated cells - absorbance of blank) / (absorbance of control - absorbance of blank)) x 100.
The tests were performed with observations after 18 hours, seeding 8,000 cells per well, and after 42 hours, seeding 2,000 cells per well. Furthermore, in order to better analyze the dose/response curves for dihydroberberine, canadine and stylopine, curves were collected at 11 concentrations by seeding 2,000 cells per well with 46 hours incubation.
Dose/response curves are plotted at 6 concentrations. The tests were performed with observations after 24 hours, seeding 8,000 cells per well.

[7] = Dose 1 µm (coptisine: 1 pm [sic])

Compound: CN1Cc2c(ccc3c2OCO3)[C@@H]2[C@H]1c1cc3c(cc1C[C@@H]2O)OCO3 [chelidonine]
- Anti-fibrotic (prevention of scar formation, also from acne) (HDF cells [1]; [7]): Yes (↓collagen, ↓IL-6, ↓IL-1β)
- Cytoprotective (antioxidant, anti-inflammatory and anti-ageing; useful also in the treatment of acne) (HDF cells [1]; [7]): Yes (↓IL-6, ↓IL-1β)
- Cytotoxic (HDF cells [1]; [7]): No
- Irritant (HDF cells [1]; [7]): No
- Wound-healing (HDF cells [1]; [7]): Yes (↓IL-1β)
- Anti-fibrotic (prevention of scar formation, also from acne) (HDF cells [1]; Dose 10 µm): No
- Cytoprotective (antioxidant, anti-inflammatory and anti-ageing; useful also in the treatment of acne) (HDF cells [1]; Dose 10 µm): No
- Cytotoxic (HDF cells [1]; Dose 10 µm): Yes (senescent morph., ↓dehydrogenase)
- Irritant (HDF cells [1]; Dose 10 µm): Yes (↑IL-6, ↑IL-1β)
- Wound-healing (HDF cells [1]; Dose 10 µm): No
- concentrations at which no toxic (cytotoxic and irritant) effects are shown (HDF cells [1]; exposure for 24 hours): less than or equal to 1 µM
- IL-6 production (effect in words) (interleukin 6 (IL-6); 1 µM, 34 ng/ml TGF-β1): antagonizes the production of IL-6
- IL-6 ng/(ml* No. of cells from photo) ± SD (interleukin 6 (IL-6); 1 µM, 34 ng/ml TGF-β1): 620±72 ng/(ml* No. of cells from photo)
- IL-6 production (effect in words) (interleukin 6 (IL-6); 1 µM, 100 µM H2O2): antagonizes the production of IL-6
- IL-6 ng/(ml* No. of cells from photo) ± SD (interleukin 6 (IL-6); 1 µM, 100 µM H2O2): 697±87 ng/(ml* No. of cells from photo)
- IL-6 ng/(ml* No. of cells from photo) ± SD (interleukin 6 (IL-6); 1 µM, Standard conditions): 2883±553 ng/(ml* No. of cells from photo)
- IL-6 production (effect in words) (interleukin 6 (IL-6); 1 µM, standard conditions): inhibits the production of IL-6
- IL-6 production (effect in words) (interleukin 6 (IL-6); 10 µM, 34 ng/ml TGF-β1): stimulates IL-6 production
- IL-6 ng/(ml* No. of cells from photo) ± SD (interleukin 6 (IL-6); 10 µM, 34 ng/ml TGF-β1): 1231±76 ng/(ml* No. of cells from photo)
- IL-6 production (effect in words) (interleukin 6 (IL-6); 10 µM, 100 µM H2O2): stimulates IL-6 production
- IL-6 ng/(ml* No. of cells from photo) ± SD (interleukin 6 (IL-6); 10 µM, 100 µM H2O2): 1990±32 ng/(ml* No. of cells from photo)
- IL-6 ng/(ml* No. of cells from photo) ± SD (interleukin 6 (IL-6); 10 µM, Standard conditions): 38100±8300 ng/(ml* No. of cells from photo)
- IL-6 production (effect in words) (interleukin 6 (IL-6); 10 µM, standard conditions): stimulates IL-6 production
- cell morphology (HDF cells [2]; 1 µM): No changes in cell morphology
- cell morphology (HDF cells [2]; 10 µM): Very obvious changes in cell morphology
- cell proliferation (effect in words) (HDF cells [3]; 1 µM): no evident ability to modulate cell proliferation
- No. of cells from photo ± SD (HDF cells [3]; 1 µM, 34 ng/ml TGF-β1): 184±25
- No. of cells from photo ± SD (HDF cells [3]; 1 µM, 100 µM H2O2): 189±37
- No. of cells from photo ± SD (HDF cells [3]; 1 µM, Standard conditions): 202±21
- cell proliferation (effect in words) (HDF cells [3]; 10 µM): marked inhibition of proliferation
- No. of cells from photo ± SD (HDF cells [3]; 10 µM, 100 µM H2O2): 101±4
- No. of cells from photo ± SD (HDF cells [3]; 10 µM, Standard conditions): 109±16
- IL-1β production (effect in words) (interleukin 1β (IL-1β); 1 µM, 34 ng/ml TGF-β1): antagonizes the production of IL-1β
- IL-1β ng/(ml* No. of cells from photo) ± SD (interleukin 1β (IL-1β); 1 µM, 34 ng/ml TGF-β1): 127±26 ng/(ml* No. of cells from photo)
- IL-1β production (effect in words) (interleukin 1β (IL-1β); 1 µM, 100 µM H2O2): antagonizes the production of IL-1β
- IL-1β ng/(ml* No. of cells from photo) ± SD (interleukin 1β (IL-1β); 1 µM, 100 µM H2O2): 115±8 ng/(ml* No. of cells from photo)
- IL-1β ng/(ml* No. of cells from photo) ± SD (interleukin 1β (IL-1β); 1 µM, Standard conditions): 666±30 ng/(ml* No. of cells from photo)
- IL-1β production (effect in words) (interleukin 1β (IL-1β); 1 µM, standard conditions): inhibits the production of IL-1β
- IL-1β production (effect in words) (interleukin 1β (IL-1β); 10 µM, 34 ng/ml TGF-β1): stimulates IL-1β production
- IL-1β ng/(ml* No. of cells from photo) ± SD (interleukin 1β (IL-1β); 10 µM, 34 ng/ml TGF-β1): 363±27 ng/(ml* No. of cells from photo)
- IL-1β production (effect in words) (interleukin 1β (IL-1β); 10 µM, 100 µM H2O2): stimulates IL-1β production
- IL-1β ng/(ml* No. of cells from photo) ± SD (interleukin 1β (IL-1β); 10 µM, 100 µM H2O2): 366±35 ng/(ml* No. of cells from photo)
- IL-1β ng/(ml* No. of cells from photo) ± SD (interleukin 1β (IL-1β); 10 µM, Standard conditions): 17500±700 ng/(ml* No. of cells from photo)
- IL-1β production (effect in words) (interleukin 1β (IL-1β); 10 µM, standard conditions): stimulates IL-1β production
- collagen production (effect in words) ([4]; 1 µM, 34 ng/ml TGF-β1): tendency to antagonize collagen stimulation induced by TGF-β1
- collagen production (effect in words) ([4]; 1 µM, 100 µM H2O2): tendency to inhibit collagen production
- collagen production (effect in words) ([4]; 1 µM, standard conditions): no evident ability to modulate collagen production
- collagen production (effect in words) ([4]; 10 µM, 34 ng/ml TGF-β1): stimulates collagen production
- collagen production (effect in words) ([4]; 10 µM, 100 µM H2O2): stimulates collagen production
- collagen production (effect in words) ([4]; 10 µM, standard conditions): stimulates collagen production
- % DPPH activity ([5]; 1 mM, 30 minutes): 98%
- Anti-radical (skin protective) [5, 7]: No
- Anti-radical (skin protective) ([5]; Dose 10 µm): No
- concentrations below which no significant effects on mitochondrial dehydrogenase activity are shown [6]: less than 0.1 µM
- mitochondrial dehydrogenase activity (effect in words) ([6]; 18 h): absence of effects
- mitochondrial dehydrogenase activity (effect in words) ([6]; increased exposure time): significant inhibition of mitochondrial dehydrogenase activity
- Revitalizing agent [6, 7]: No
- Revitalizing agent ([6]; Dose 10 µm): No
- activity at 1 µM ([6]; 18 h): 105 ± 7.05%
- activity at 10 µM ([6]; 18 h): 89.3 ± 6.9%
- activity at 1 µM ([6]; 42 h): 64.7 ± 5.88%
- activity at 10 µM ([6]; 42 h): 30.3 ± 2.97%
- inhibitory power toward the mitochondrial dehydrogenase activity ([6]; skin fibroblast cells and/or keratinocytes): marked inhibitory power
